# From patent publication US20250230129A1, “POLYAMIDE COMPOUNDS, METHOD FOR PREPARING SAME, AND MEDICAL USE THEREOF” (priority 2022, published 2025)
# Read-outs that look alike come from different tables or passages of the source. Square brackets hold non-standard residues; d marks the D form. Peptide text beside a SMILES is read from it. * marks the point of attachment. Gly(N-(2R-Ph-propyl)) = C[C@@H](CNCC(=O)O)c1ccccc1; Piperidin1yl(4-NH2,4-COOH) = NC1(C(=O)O)CCN(*)CC1; dPhLac = O=C(O)[C@H](O)Cc1ccccc1; X4 = COC(=O)NC1CCN(*)CC1
# Columns and labels:
# ICR mice [1] = assay: Acetic acid writhing test in mice; type: in vivo; conditions: Mus musculus; single intravenous injection, male ICR mice; read-out: Acetic acid writhing in mice ED50
# ICR mice [2] = assay: Sedation safety window; conditions: sedation side effect ED50 (autonomic activity test)/efficacy ED50 (acetic acid writhing test)
# [3] = Autonomous activity test in mice; conditions: male, ICR, mouse, in vivo, iv
# κ receptor = κ receptor (Homo sapiens (Human), UniProt P41145); assay: Competitive Kappa receptor binding assay (3H-U69593)
# μ receptor = μ receptor (Homo sapiens (Human), UniProt P35372); assay: μ receptor affinity assay (3H-DAMGO); type: binding
# δ receptor = δ receptor (Homo sapiens (Human), UniProt P41143); assay: Competitive delta receptor binding assay (3H-DADLE)
# [4] = target: κ-opioid receptor (Kappa) (Homo sapiens (Human), UniProt P41145); assay: In vitro functional assay, HTRF cAMP-Gi in CHO-K1-OPRK1 cells; type: cell-based
# [5] = PK and blood-brain barrier permeability in mice; type: in vivo; conditions: male ICR mice, intravenous 1 mg/kg; for AUC(0-inf) / Vd / clearance / half-life / Cmax: plasma; for half-life: read-out: t½ (converted)
# Experimental: The compounds of the present disclosure were investigated for pharmacokinetic characteristics and blood-brain barrier permeability in mice.
# Healthy male ICR mice were randomly grouped, 6 animals per group. For each test compound, 3 groups of animals were used. The first group of animals was used for collecting blood and brain 5 min after the administration, and the second group of animals and the third group of animals were used for cross blood collection at subsequent time points; each test compound was intravenously administered (1 mg/kg) to corresponding groups of mice, and blood sampling via submaxillary veins of the mice was carried out at different time points. Drug contents in plasma and brain tissues at different time points were measured by an LC-MS/MS method, the brain-to-blood ratio B/P was calculated by using EXCEL software, and pharmacokinetic parameters were calculated by using DAS3.0 software.
# hERG = hERG (Homo sapiens (Human), UniProt Q12809); assay: in vitro; conditions: pH 7.4
# [6] = blood and brain 5 min after administration
# [7] = read-out: In vitro agonistic effects on k-opioid receptors EC50
Compound,ED50 (ICR mice [1]) [mg/kg],Safety window (ICR mice [2]),ED50 at 30 min [3] [mg/kg],Ki (κ receptor) [nM],Ki (μ receptor) [nM],Ki (δ receptor) [nM],EC50 [4] [nM],"B/P (brain-to-blood ratio) [5, 6]",AUC(0-inf) ([5]; mouse) [ng·h/mL],Vd ([5]; mouse) [L/kg],clearance ([5]; mouse) [mL/min/kg],half-life ([5]; mouse) [min],Cmax ([5]; mouse) [ng/mL],"Kp at 5 min ([5]; mouse, brain/plasma, blood and brain 5 min after administration, read-out: B/P (brain-to-blood ratio))",inhibition at 10 µM (hERG) [%],Ki (κ receptor; read-out: κ receptor Ki) [nM],Ki (μ receptor; read-out: μ receptor Ki) [nM],Ki (δ receptor; read-out: δ receptor Ki) [nM],"EC50 [4, 7] [nM]"
"CC(C)C[C@@H](NC(=O)[C@@H](Cc1ccccc1)NC(=O)CNC[C@H](C)c1ccccc1)C(=O)N[C@H](CCCCN)C(=O)N1CCC(N)(C(=O)O)CC1 [Comparative Example 1B, reference compound] (H-[Gly(N-(2R-Ph-propyl))][dF][dL][dK]-{Piperidin1yl(4-NH2,4-COOH)})",0.25,2.36,0.59,,,,,,,,,,,,,,,,
"CC(C)C[C@@H](NC(=O)[C@@H](Cc1ccccc1)NC(=O)C[C@@H](N)c1ccccc1)C(=O)N[C@H](CCCCN)C(=O)N1CCC(N)(C(=O)O)CC1 [Compound 4-0, 4-amino-1-[(2R)-6-amino-2-[(2R)-2-[(2R)-2-((3R)-3-amino-3-phenylpropionylamino)-3-phenylpropionylamino]-4-methylpentanoylamino]hexanoyl]piperidine-4-carboxylic acid]",1.14,6.44,7.34,2.8,> 1000,> 1000,3.62,,,,,,,,,,,,
CC(C)C[C@@H](NC(=O)[C@@H](Cc1ccccc1)NC(=O)N(C)C(CN)c1ccccc1)C(=O)N[C@H](CCCCN)C(=O)N1CCS(=N)(=O)CC1 (stereo partly drawn) [Compound 10],,,,0.86,> 1000,> 1000,1.1,0.007,4010,0.29,4.17,49.2,3220,,,,,,
COC(=O)NC1CCN(C(=O)[C@@H](CCCCN)NC(=O)[C@@H](CC(C)C)NC(=O)[C@@H](Cc2ccccc2)NC(=O)[C@H](O)Cc2ccccc2)CC1 [Compound 11] (H-[dPhLac][dF][dL][dK]-X4),1.82,5.27,9.6,0.94,> 1000,> 1000,5.1,,,,,,,,,,,,
"COC(=O)NC1CCN(C(=O)[C@@H](CCCCN)NC(=O)[C@@H](CC(C)C)NC(=O)[C@@H](Cc2ccccc2)NC(=O)N(C)C(CN)c2ccccc2)CC1 (stereo partly drawn) [Compound 12, methyl N-{1-[(2R)-6-amino-2-[(2R)-2-[(2R)-2-{[(2-amino-1-phenylethyl)(methyl)carbamoyl]amino}-3-phenylpropionylamino]-4-methylpentanoylamino]hexanoyl]piperidin-4-yl}carbamate]",,,,0.53,> 1000,> 1000,0.17,,3680,0.54,4.67,85.2,2260,0.008,2.13,,,,
"COC(=O)C1(N)CCN(C(=O)[C@@H](CCCCN)NC(=O)[C@@H](CC(C)C)NC(=O)[C@@H](Cc2ccccc2)NC(=O)N(CCN)Cc2ccccc2)CC1 [Compound 13-2, methyl 4-amino-1-[(2R)-6-amino-2-[(2R)-2-[(2R)-2-{[2-aminoethyl(benzyl)carbamoyl]amino}-3-phenylpropionylamino]-4-methylpentanoylamino]hexanoyl]piperidine-4-carboxylate]",0.17,16.18,2.75,0.13,> 1000,> 1000,0.13,BQL**,1690,0.63,10,43.2,2930,,,,,,
CC(C)C[C@@H](NC(=O)[C@@H](Cc1ccccc1)NC(=O)N(CCN)Cc1ccccc1)C(=O)N[C@H](CCCCN)C(=O)N1CCS(=O)(=O)CC1 [Compound 21],0.5,2.82,1.42,0.33,> 1000,> 1000,0.68,0.010,2670,0.63,6.33,69,3460,,,,,,
CC(C)C[C@@H](NC(=O)[C@@H](Cc1ccccc1)NC(=O)N(Cc1ccccc1)C1CCNC1)C(=O)N[C@H](CCCCN)C(=O)N1CCC(N)(C(=O)O)CC1 (stereo partly drawn) [Compound 27],0.88,5.22,4.59,0.88,> 1000,> 1000,0.87,0.010,1160,0.63,14.7,30,2320,,,,,,
CC(C)C[C@@H](NC(=O)[C@@H](Cc1ccccc1)NC(=O)N(CCN)Cc1ccccc1)C(=O)N[C@H](CCCCN)C(=O)N1CCC2(CC1)NC(=O)NC2=O [Compound 29],0.41,3.28,1.35,0.63,> 1000,> 1000,0.058,0.010,3340,0.32,5.17,44.4,4710,,,,,,
CC(=O)NC1CCN(C(=O)[C@@H](CCCCN)NC(=O)[C@@H](CC(C)C)NC(=O)[C@@H](Cc2ccccc2)NC(=O)N(CCN)Cc2ccccc2)CC1 [Compound 45],,,,0.52,> 1000,> 1000,0.16,,,,,,,,,,,,
COC(=O)N1CCN(C(=O)[C@@H](CCCCN)NC(=O)[C@@H](CC(C)C)NC(=O)[C@@H](Cc2ccccc2)NC(=O)N(CCN)Cc2ccccc2)CC1 [Compound 46],,,,0.29,> 1000,> 1000,0.22,,,,,,,,,,,,
CC(=O)N1CCN(C(=O)[C@@H](CCCCN)NC(=O)[C@@H](CC(C)C)NC(=O)[C@@H](Cc2ccccc2)NC(=O)N(CCN)Cc2ccccc2)CC1 [Compound 47],,,,0.49,> 1000,> 1000,0.24,,,,,,,,,,,,
CC(C)C[C@@H](NC(=O)[C@@H](Cc1ccccc1)NC(=O)N(CCN)CC1CC1)C(=O)N[C@H](CCCCN)C(=O)N1CCC(N)(C(=O)O)CC1 [Compound 48],,,,3.79,> 1000,> 1000,12,,,,,,,,,,,,
CC(C)C[C@@H](NC(=O)[C@@H](Cc1ccccc1)NC(=O)N(CCN)Cc1ccc(F)cc1)C(=O)C[C@H](CCCCN)C(=O)N1CCC(N)(C(=O)O)CC1 [Compound 50],,,,,,,,,,,,,,,,0.27,> 1000,> 1000,0.43
(2R)-2-[(2R)-2-{[(2-amino-1-phenylethyl)(methyl)carbamoyl)amino}-3-phenylpropionylamino]-N-[(2R)-6-amino-1-{4-[(methylcarbamoyl)amino]piperidin-1-yl}-1-oxohexyl-2-yl]-4-methylpentanamide [Compound 8],,,,,,,,,,,,,,,,0.09,> 1000,> 1000,0.9
